Assay results taken from article PMC10674657, “Quinazolin-4-one/3-cyanopyridin-2-one Hybrids as Dual Inhibitors of EGFR and BRAF^V600E: Design, Synthesis, and Antiproliferative Activity” (Pharmaceuticals, 2023).
Read-outs that look alike come from different tables or passages of the source.

Tests used:
BRAF^V600E [1] = settings: cited from earlier work
[2] = test system: four cancer cell lines (A-549, MCF-7, Panc-1, HT-29); assay: Antiproliferative assay, average over four cancer cell lines (GI50); settings: read-out: Average IC50 (GI50)
[3] = test system: MCF-7 human breast adenocarcinoma cell line; assay: Antiproliferative assay, MCF-7
MCF-10A cells = assay: Cell viability (cytotoxicity) MTT assay in non-tumorigenic MCF-10A cells; type: cell-based, human; settings: 50 µM, 4 days
[4] = test system: A-549 human lung carcinoma cell line; assay: Antiproliferative assay, A-549
[5] = test system: HT-29 human colon cancer cell line; assay: Antiproliferative assay, HT-29
[6] = test system: Panc-1 human pancreatic cancer cell line; assay: Antiproliferative assay, Panc-1
EGFR [7] = target: T1, EGFR (Homo sapiens, UniProt P00533); parameters: acids645–1186; His6 (N); made in house; host or cells: Sf-9 insect cells (baculovirus; pBlueBacHis2B / pFASTBacHTc); settings: cited from earlier work
EGFR [8] = target: T1, EGFR; assay: EGFR-TK inhibitory assay; settings: for fold less potent than Erlotinib, EGFR: ratio of IC50 to Erlotinib
[9] = Cell viability (cytotoxicity) MTT assay in non-tumorigenic MCF-10A cells; type: cell-based, human; settings: human, MCF-10A mammary epithelial cells
BRAF^V600E [10] = target: T2, BRAF^V600E (Mus musculus, UniProt P28028, V585E); assay: BRAF V600E kinase inhibitory assay; type: biochemical; settings: for IC50: BRAF V600E, mean ± SEM, read-out: BRAF Inhibition IC50 ± SEM; for fold less potent than Erlotinib, BRAF^V600E: ratio of IC50 to Erlotinib
T2 construct: Mouse full-length GST-tagged; purchased Invitrogen PV3849
Source text: Mouse full-length GST-tagged
developed using a phosphor screen.

[11] = test system: cancer cell proliferation; settings: cited from earlier work
[12] = Homo sapiens, MCF7, read-out: Antiproliferative Activity IC50 ± SEM, MCF-7
[13] = Homo sapiens, A549, read-out: Antiproliferative Activity IC50 ± SEM, A-549
[14] = Homo sapiens, HT-29, read-out: Antiproliferative Activity IC50 ± SEM, HT-29
[15] = Homo sapiens, PANC-1, read-out: Antiproliferative Activity IC50 ± SEM, Panc-1

T2 sequence (P28028 whole entry V585E): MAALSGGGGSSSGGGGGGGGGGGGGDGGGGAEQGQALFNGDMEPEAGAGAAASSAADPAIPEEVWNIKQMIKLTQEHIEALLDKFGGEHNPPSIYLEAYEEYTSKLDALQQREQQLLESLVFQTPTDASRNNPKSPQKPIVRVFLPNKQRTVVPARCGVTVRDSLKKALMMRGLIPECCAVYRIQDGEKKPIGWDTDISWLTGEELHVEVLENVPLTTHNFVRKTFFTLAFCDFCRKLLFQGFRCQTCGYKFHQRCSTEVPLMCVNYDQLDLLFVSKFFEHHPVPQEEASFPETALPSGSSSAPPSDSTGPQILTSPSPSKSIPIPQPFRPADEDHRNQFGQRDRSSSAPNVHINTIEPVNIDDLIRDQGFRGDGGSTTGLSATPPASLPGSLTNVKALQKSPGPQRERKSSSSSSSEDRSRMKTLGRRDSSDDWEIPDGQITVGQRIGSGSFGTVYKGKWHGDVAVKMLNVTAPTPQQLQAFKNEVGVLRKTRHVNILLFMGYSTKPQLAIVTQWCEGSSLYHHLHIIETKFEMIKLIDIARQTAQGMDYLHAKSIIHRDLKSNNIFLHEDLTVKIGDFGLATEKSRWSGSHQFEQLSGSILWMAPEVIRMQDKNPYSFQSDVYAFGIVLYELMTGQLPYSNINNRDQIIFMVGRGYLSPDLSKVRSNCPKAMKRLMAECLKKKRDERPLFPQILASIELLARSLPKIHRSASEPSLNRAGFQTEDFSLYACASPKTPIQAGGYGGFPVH
T1 sequence (P00533 669-1210): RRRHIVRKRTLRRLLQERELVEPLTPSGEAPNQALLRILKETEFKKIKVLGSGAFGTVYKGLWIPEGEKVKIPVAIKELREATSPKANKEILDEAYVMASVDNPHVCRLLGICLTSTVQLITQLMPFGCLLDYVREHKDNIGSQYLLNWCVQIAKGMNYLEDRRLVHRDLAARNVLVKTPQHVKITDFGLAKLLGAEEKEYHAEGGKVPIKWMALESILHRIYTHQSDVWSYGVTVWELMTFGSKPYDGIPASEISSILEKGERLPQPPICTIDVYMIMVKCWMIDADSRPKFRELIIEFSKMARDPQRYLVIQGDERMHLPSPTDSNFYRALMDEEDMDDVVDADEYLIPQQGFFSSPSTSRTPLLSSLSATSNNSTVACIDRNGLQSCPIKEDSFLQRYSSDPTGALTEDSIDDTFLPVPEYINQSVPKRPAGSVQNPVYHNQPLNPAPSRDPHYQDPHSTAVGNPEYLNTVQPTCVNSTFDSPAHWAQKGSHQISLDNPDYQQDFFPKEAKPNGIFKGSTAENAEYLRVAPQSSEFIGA

Molecule | IC50 (BRAF^V600E [1]) | IC50 ([2]; Homo sapiens) | IC50 [3, 12] | IC50 (EGFR [8]) | viability at 4 days, 50 µM [9] | IC50 (BRAF^V600E [10]) | IC50 [4, 13] | IC50 [5, 14] | IC50 [6, 15] | further results
2-((3-Allyl-4-oxo-3,4-dihydroquinazolin-2-yl)thio)-N-(4-(4-(4-bromophenyl)-4-cyano-6-oxo-1,6-dihydropyridin-2-yl)phenyl)acetamide [Compound 20] |  |  |  |  |  |  |  |  |  | IC50 ([2]; average of IC50 against four cancer cell lines): 2000 nM; IC50 ([3]; read-out: Antiproliferative Activity IC50 ± SEM, MCF-7, mean ± SEM): 1800 ± 100 nM; Cell Viability % (MCF-10A cells): 91%; IC50 ([4]; read-out: Antiproliferative Activity IC50 ± SEM, A-549, mean ± SEM): 2000 ± 100 nM; IC50 ([5]; read-out: Antiproliferative Activity IC50 ± SEM, HT-29, mean ± SEM): 2100 ± 100 nM; IC50 ([6]; read-out: Antiproliferative Activity IC50 ± SEM, Panc-1, mean ± SEM): 2100 ± 100 nM
C=CCn1c(SCC(=O)Nc2cccc(C(=O)/C=C/c3ccc(OC)cc3)c2)nc2ccccc2c1=O [II] | 650 nM |  |  |  |  |  |  |  |  | IC50 (EGFR [7]): 110 nM
CCn1c(SCC(=O)Nc2ccc(-c3cc(-c4ccc(OC)cc4)c(C#N)c(=O)[nH]3)cc2)nc2ccccc2c1=O [Compound 8, N-(4-(5-Cyano-4-(4-methoxyphenyl)-6-oxo-1,6-dihydropyridin-2-yl)phenyl)-2-((3-ethyl-4-oxo-3,4-dihydroquinazolin-2-yl)thio)acetamide] |  | 1600 nM | 1400 ± 100 nM | 160 ± 12 nM | 89% | 220 ± 15 nM | 1500 ± 100 nM | 1700 ± 100 nM | 1700 ± 100 nM | 
C=CCn1c(SCC(=O)Nc2ccc(-c3cc(-c4ccc(Cl)cc4)c(C#N)c(=O)[nH]3)cc2)nc2ccccc2c1=O [Compound 19, 2-((3-Allyl-4-oxo-3,4-dihydroquinazolin-2-yl)thio)-N-(4-(4-(4-chlorophenyl)-5-cyano-6-oxo-1,6-dihydropyridin-2-yl)phenyl)acetamide] |  | 1400 nM | 1200 ± 80 nM | 140 ± 11 nM | 91% | 190 ± 12 nM | 1300 ± 100 nM | 1600 ± 100 nM | 1600 ± 100 nM | fold less potent than Erlotinib, EGFR (EGFR [8]): 1.8 fold; fold less potent than Erlotinib, BRAF^V600E (BRAF^V600E [10]): 3 fold
COc1ccc(/C=C/C(=O)c2ccc(NC(=O)Cn3c(-c4ccc(OC)c(OC)c4)cc(-c4ccc(OC)c(OC)c4)c(C#N)c3=O)cc2)cc1 [IV] | 58 nM |  |  |  |  |  |  |  |  | GI50 [11]: 720 nM
CCn1c(SCC(=O)Nc2ccc(-c3cc(-c4ccc(Cl)cc4)c(C#N)c(=O)[nH]3)cc2)nc2ccccc2c1=O [Compound 9, N-(4-(4-(4-Chlorophenyl)-5-cyano-6-oxo-1,6-dihydropyridin-2-yl)phenyl)-2-((3-ethyl-4-oxo-3,4-dihydroquinazolin-2-yl)thio)acetamide] |  | 1800 nM | 1600 ± 100 nM | 190 ± 15 nM | 96% | 290 ± 20 nM | 1800 ± 100 nM | 2000 ± 100 nM | 2000 ± 100 nM | 
C=CCn1c(SCC(=O)Nc2ccc(-c3cc(-c4ccccc4)c(C#N)c(=O)[nH]3)cc2)nc2ccccc2c1=O [Compound 17, 2-((3-Allyl-4-oxo-3,4-dihydroquinazolin-2-yl)thio)-N-(4-(5-cyano-6-oxo-4-phenyl-1,6-dihydropyridin-2-yl)phenyl)acetamide] |  | 8600 nM | 8100 ± 700 nM |  | 89% |  | 8400 ± 700 nM | 9000 ± 700 nM | 8900 ± 700 nM | 
C=CCn1c(SCC(=O)Nc2ccc(-c3cc(-c4ccc(OC)cc4)c(C#N)c(=O)[nH]3)cc2)nc2ccccc2c1=O [Compound 18, 2-((3-Allyl-4-oxo-3,4-dihydroquinazolin-2-yl)thio)-N-(4-(5-cyano-4-(4-methoxyphenyl)-6-oxo-1,6-dihydropyridin-2-yl)phenyl)acetamide] |  | 1200 nM | 1000 ± 100 nM | 110 ± 10 nM | 90% | 140 ± 10 nM | 1100 ± 100 nM | 1300 ± 100 nM | 1300 ± 100 nM | fold less potent than Erlotinib, EGFR (EGFR [8]): 1.4 fold; fold less potent than Erlotinib, BRAF^V600E (BRAF^V600E [10]): 2 fold
COc1ccc(-c2cc(-c3ccc(OC)c(OC)c3)n(CC(=O)Nc3ccc(C4=NNC(c5ccc(OC)c(OC)c5)C4)cc3)c(=O)c2C#N)cc1OC (stereo not shown) [III] | 65 nM |  |  |  |  |  |  |  |  | GI50 [11]: 25 nM
N#Cc1c(-c2ccccc2)cc(-c2ccc(NC(=O)CSc3nc4ccccc4c(=O)n3-c3ccccc3)cc2)[nH]c1=O [Compound 12, N-(4-(5-Cyano-6-oxo-4-phenyl-1,6-dihydropyridin-2-yl)phenyl)-2-((4-oxo-3-phenyl-3,4-dihydroquinazolin-2-yl)thio)acetamide] |  | 7500 nM | 7200 ± 700 nM |  | 86% |  | 7500 ± 600 nM | 7700 ± 700 nM | 7800 ± 700 nM | 
N#Cc1c(-c2ccc(Br)cc2)cc(-c2ccc(NC(=O)CSc3nc4ccccc4c(=O)n3-c3ccccc3)cc2)[nH]c1=O [Compound 15, N-(4-(4-(4-Bromophenyl)-5-cyano-6-oxo-1,6-dihydropyridin-2-yl)phenyl)-2-((4-oxo-3-phenyl-3,4-dihydroquinazolin-2-yl)thio)acetamide] |  | 4800 nM | 4600 ± 400 nM |  | 87% |  | 4700 ± 400 nM | 4900 ± 400 nM | 5000 ± 400 nM | 
